Reference: patent US20050267357A1, “fMRI system for detecting symptoms associated with Attention Deficit Hyperactivity Disorder” (priority 2003, published 2005)

System: left insula/frontal operculum of ADHD and control groups
Experiment: fMRI during N-Back working memory and sustained attention task, on and off medication
Assay type: in vivo
Settings: 1-B, 2-B and 3-B N-Back conditions, 0.2 mg/kg and 0.4 mg/kg MP compared with placebo
Description: A General Electric Signa EXCITE 3.0 Tesla MRI scanner is used for implementing the present invention although any of a number of commercial MRI scanners having 3.0 or 1.5 Tesla fields could be used. Typical imaging parameters involve, for example, the acquisition of 36 contiguous axial slices that cover the entire brain (typically 4 mm thick) using a blipped gradient-echo, echoplanar pulse sequence (echo time (TE)=25 msec; interscan period (TR)=[…]; field of view (FOV)=24 cm; 64×64 voxel matrix; 3.75 mm.×3.75 mm in-plane resolution). High resolution (124 axial slices) spoiled GRASS (gradient-recalled at steady-state) anatomic images [TE=3.9 ms; TR (repetition time)=9.5 ms, 120 flip angle, NEX (number of excitations)=1, slice thickness=1.0 mm, FOV=24 cm, matrix size=256×224] are acquired prior to functional imaging for anatomical localization of functional activation and co-registration. Stimulus presentation and general communication to the patient in the MR scanner is accomplished with stereo audio headphones and computer generated images fed into a digital LCD projector which are back projected to the subject and viewed by the patient through prismatic glasses. Subject responses are recorded on a small hand held keyboard or response device including multiple response buttons. […]

`COC(=O)C(c1ccccc1)C1CCCCN1` (stereo not shown) [MP, Methylphenidate] was tested, and the “Group differences (ADHD vs control) in brain activation (percent MR signal intensity)” value was “tended to disappear”.
